Oligonucleotides are written 5' to 3', each unit as a sugar letter and its base; * is a phosphorothioate linkage, no mark a phosphodiester; rarer units and linkages stand in square brackets, end groups in braces. Plain capitals give the bases only. d = 2'-deoxy (DNA)

Here are results for 36 substances from patent US20050142581A1, “Microrna as ligands and target molecules” (priority 2003, published 2005).

The data set relates to human CD40 mRNA. The data set can be described thus: Inhibition of CD40 mRNA levels by oligonucleotides (real-time RT-PCR). The arrangement: concentration or dose not given beside the values. As to conditions: oligodeoxynucleotides with phosphorothioate backbones throughout; averages from three experiments. Type of data set: cell-based. Here is the method:
When cells reach about 80% confluency, they are treated with oligonucleotide. For cells grown in 96-well plates, wells are washed once with 200 μl Opti-MEM-1 reduced-serum medium (Life Technologies) and then treated with 130 μl of Opti-MEM-1 containing 3.75 μg/ml LIPOFECTIN (Life Technologies) and the desired oligonucleotide at a final concentration of 150 nM. After 4 hours of treatment, the medium was replaced with fresh medium. Cells were harvested 16 hours after oligonucleotide treatment.
Poly(A)+ mRNA was isolated according to Miura et al. (Clin. Chem., 1996, 42, 1758). Briefly, for cells grown on 96-well plates, growth medium was removed from the cells and each well was washed with 200 ul cold PBS. 60 ul lysis buffer (10 mM Tris-HCl, pH 7.6, 1 mM EDTA, 0.5 M NaCl, 0.5% NP-40, 20 mM vanadyl-ribonucleoside complex) was added to each well, the plate was gently agitated and then incubated at room temperature for five minutes. 55 ul of lysate was transferred to Oligo d(T) coated 96 well plates (AGCT Inc., Irvine, Calif.). Plates were incubated for 60 minutes at room temperature, washed 3 times with 200 ul of wash buffer (10 mM Tris-HCl pH 7.6, 1 mM EDTA, 0.3 M NaCl). After the final wash, the plate was blotted on paper towels to remove excess wash buffer and then air-dried for 5 minutes. 60 ul of elution buffer (5 mM Tris-HCl pH 7.6), preheated to 70° C. was added to each well, the plate was incubated on a 90° hot plate for 5 minutes, and the eluate then transferred to a fresh 96 well plate. Cells grown on 100 mm or other standard plates may be treated similarly, using appropriate volumes of all solutions.
Quantitation of CD40 mRNA levels was determined by real-time PCR (RT-PCR) using the ABI PRISM 7700 Sequence Detection System (PE-Applied Biosystems, Foster City, Calif.) according to manufacturer's instructions. This is a closed-tube, non-gel-based, fluorescence detection system which allows high-throughput quantitation of polymerase chain reaction (PCR) products in real-time.
As opposed to standard PCR, in which amplification products are quantitated after the PCR is completed, products in RT-PCR are quantitated as they accumulate. This is accomplished by including in the PCR reaction an oligonucleotide probe that anneals specifically between the forward and reverse PCR primers, and contains two fluorescent dyes. A reporter dye (e.g., JOE or FAM, PE-Applied Biosystems, Foster City, Calif.) is attached to the 5′ end of the probe and a quencher dye (e.g., TAMRA, PE-Applied Biosystems, Foster City, Calif.) is attached to the 3′ end of the probe. When the probe and dyes are intact, reporter dye emission is quenched by the proximity of the 3′ quencher dye. During amplification, annealing of the probe to the target sequence creates a substrate that can be cleaved by the 5′-exonuclease activity of Taq polymerase.
With each cycle, additional reporter dye molecules are cleaved from their respective probes, and the fluorescence intensity is monitored at regular (six-second) intervals by laser optics built into the ABI PRISM 7700 Sequence Detection System. In each assay, a series of parallel reactions containing serial dilutions of mRNA from untreated control samples generates a standard curve that is used to quantitate the percent inhibition after antisense oligonucleotide treatment of test samples.
RT-PCR reagents were obtained from PE-Applied Biosystems, Foster City, Calif. RT-PCR reactions were carried out by adding 25 ul PCR cocktail (1× Taqman buffer A, 5.5 mM MgCl2, 300 uM each of dATP, dCTP and dGTP, 600 uM of dUTP, 100 nM each of forward primer, reverse primer, and probe, 20 U RNAse inhibitor, 1.25 units AmpliTaq Gold, and 12.5 U MuLV reverse transcriptase) to 96 well plates containing 25 ul poly(A) mRNA solution. […]
In general terms: Quantitative PCR measures a nucleic acid by following its amplification.
As to “18623 (DNA dC*dC*dA*dG*dG*dC*dG*dG*dC*dA*dG*dG*dA*dC*dC*dA*dC*dT; antisense) [compound 18623]”, the “% INHIB. (Inhibition of CD40 mRNA Levels by Phosphorothioate Oligodeoxynucleotides)” value is given as 30.71%.

As to “18624 (DNA dG*dA*dC*dC*dA*dG*dG*dC*dG*dG*dC*dA*dG*dG*dA*dC*dC*dA; antisense) [compound 18624]”, the “% INHIB. (Inhibition of CD40 mRNA Levels by Phosphorothioate Oligodeoxynucleotides)” value stood at 28.09%.

In the case of “18625 (DNA dA*dG*dG*dT*dG*dA*dG*dA*dC*dC*dA*dG*dG*dC*dG*dG*dC*dA; antisense) [compound 18625]”, the “% INHIB. (Inhibition of CD40 mRNA Levels by Phosphorothioate Oligodeoxynucleotides)” value was found to be 21.89%.

“18626 (DNA dC*dA*dG*dA*dG*dG*dC*dA*dG*dA*dC*dG*dA*dA*dC*dC*dA*dT; antisense) [compound 18626]”: the “% INHIB. (Inhibition of CD40 mRNA Levels by Phosphorothioate Oligodeoxynucleotides)” value is 0.00%.

As to “18627 (DNA dG*dC*dA*dG*dA*dG*dG*dC*dA*dG*dA*dC*dG*dA*dA*dC*dC*dA; antisense) [compound 18627]”, the “% INHIB. (Inhibition of CD40 mRNA Levels by Phosphorothioate Oligodeoxynucleotides)” value came to 0.00%.

For “18628 (DNA dG*dC*dA*dA*dG*dC*dA*dG*dC*dC*dC*dC*dA*dG*dA*dG*dG*dA; antisense) [compound 18628]”, the “% INHIB. (Inhibition of CD40 mRNA Levels by Phosphorothioate Oligodeoxynucleotides)” value was found to be 0.00%.

With “18629 (DNA dG*dG*dT*dC*dA*dG*dC*dA*dA*dG*dC*dA*dG*dC*dC*dC*dC*dA; antisense) [compound 18629]”, the “% INHIB. (Inhibition of CD40 mRNA Levels by Phosphorothioate Oligodeoxynucleotides)” value stood at 29.96%.

For the substance “18630 (DNA dG*dA*dC*dA*dG*dC*dG*dG*dT*dC*dA*dG*dC*dA*dA*dG*dC*dA; antisense) [compound 18630]”, the “% INHIB. (Inhibition of CD40 mRNA Levels by Phosphorothioate Oligodeoxynucleotides)” value came to 0.00%.

Turning to “18631 (DNA dG*dA*dT*dG*dG*dA*dC*dA*dG*dC*dG*dG*dT*dC*dA*dG*dC*dA; antisense) [compound 18631]”, the “% INHIB. (Inhibition of CD40 mRNA Levels by Phosphorothioate Oligodeoxynucleotides)” value is listed as 0.00%.

In the case of “18632 (DNA dT*dC*dT*dG*dG*dA*dT*dG*dG*dA*dC*dA*dG*dC*dG*dG*dT*dC; antisense) [compound 18632]”, the “% INHIB. (Inhibition of CD40 mRNA Levels by Phosphorothioate Oligodeoxynucleotides)” value came out at 0.00%.

With “18633 (DNA dG*dG*dT*dG*dG*dT*dT*dC*dT*dG*dG*dA*dT*dG*dG*dA*dC*dA; antisense) [compound 18633]”, the “% INHIB. (Inhibition of CD40 mRNA Levels by Phosphorothioate Oligodeoxynucleotides)” value came out at 0.00%.

As for “18634 (DNA dG*dT*dG*dG*dG*dT*dG*dG*dT*dT*dC*dT*dG*dG*dA*dT*dG*dG; antisense) [compound 18634]”, the “% INHIB. (Inhibition of CD40 mRNA Levels by Phosphorothioate Oligodeoxynucleotides)” value is recorded as 0.00%.

For the substance “18635 (DNA dG*dC*dA*dG*dT*dG*dG*dG*dT*dG*dG*dT*dT*dC*dT*dG*dG*dA; antisense) [compound 18635]”, the “% INHIB. (Inhibition of CD40 mRNA Levels by Phosphorothioate Oligodeoxynucleotides)” value is on record as 0.00%.

On to “18636 (DNA dC*dA*dC*dA*dA*dA*dG*dA*dA*dC*dA*dG*dC*dA*dC*dT*dG*dA; antisense) [compound 18636]”, for which the “% INHIB. (Inhibition of CD40 mRNA Levels by Phosphorothioate Oligodeoxynucleotides)” value worked out at 0.00%.

Consider “18637 (DNA dC*dT*dG*dG*dC*dA*dC*dA*dA*dA*dG*dA*dA*dC*dA*dG*dC*dA; antisense) [compound 18637]”, for which the “% INHIB. (Inhibition of CD40 mRNA Levels by Phosphorothioate Oligodeoxynucleotides)” value was determined as 0.00%.

In the case of “18638 (DNA dT*dC*dC*dT*dG*dG*dC*dT*dG*dG*dC*dA*dC*dA*dA*dA*dG*dA; antisense) [compound 18638]”, the “% INHIB. (Inhibition of CD40 mRNA Levels by Phosphorothioate Oligodeoxynucleotides)” value was 0.00%.

Turning to “18639 (DNA dC*dT*dG*dT*dC*dC*dT*dG*dG*dC*dT*dG*dG*dC*dA*dC*dA*dA; antisense) [compound 18639]”, the “% INHIB. (Inhibition of CD40 mRNA Levels by Phosphorothioate Oligodeoxynucleotides)” value worked out at 4.99%.

For the substance “18640 (DNA dC*dT*dC*dA*dC*dC*dA*dG*dT*dT*dT*dC*dT*dG*dT*dC*dC*dT; antisense) [compound 18640]”, the “% INHIB. (Inhibition of CD40 mRNA Levels by Phosphorothioate Oligodeoxynucleotides)” value was 0.00%.

As to “18641 (DNA dT*dC*dA*dC*dT*dC*dA*dC*dC*dA*dG*dT*dT*dT*dC*dT*dG*dT; antisense) [compound 18641]”, the “% INHIB. (Inhibition of CD40 mRNA Levels by Phosphorothioate Oligodeoxynucleotides)” value stood at 0.00%.

In the case of “18642 (DNA dG*dT*dG*dC*dA*dG*dT*dC*dA*dC*dT*dC*dA*dC*dC*dA*dG*dT; antisense) [compound 18642]”, the “% INHIB. (Inhibition of CD40 mRNA Levels by Phosphorothioate Oligodeoxynucleotides)” value is on record as 0.00%.

Take “18643 (DNA dA*dC*dT*dC*dT*dG*dT*dG*dC*dA*dG*dT*dC*dA*dC*dT*dC*dA; antisense) [compound 18643]”: the “% INHIB. (Inhibition of CD40 mRNA Levels by Phosphorothioate Oligodeoxynucleotides)” value was 0.00%.

In the case of “18644 (DNA dC*dA*dG*dT*dG*dA*dA*dC*dT*dC*dT*dG*dT*dG*dC*dA*dG*dT; antisense) [compound 18644]”, the “% INHIB. (Inhibition of CD40 mRNA Levels by Phosphorothioate Oligodeoxynucleotides)” value is recorded as 5.30%.

“18645 (DNA dA*dT*dT*dC*dC*dG*dT*dT*dT*dC*dA*dG*dT*dG*dA*dA*dC*dT; antisense) [compound 18645]”: the “% INHIB. (Inhibition of CD40 mRNA Levels by Phosphorothioate Oligodeoxynucleotides)” value worked out at 0.00%.

Take “18646 (DNA dG*dA*dA*dG*dG*dC*dA*dT*dT*dC*dC*dG*dT*dT*dT*dC*dA*dG; antisense) [compound 18646]”: the “% INHIB. (Inhibition of CD40 mRNA Levels by Phosphorothioate Oligodeoxynucleotides)” value was 9.00%.

With “18647 (DNA dT*dT*dC*dA*dC*dC*dG*dC*dA*dA*dG*dG*dA*dA*dG*dG*dC*dA; antisense) [compound 18647]”, the “% INHIB. (Inhibition of CD40 mRNA Levels by Phosphorothioate Oligodeoxynucleotides)” value turned out to be 0.00%.

Consider “18648 (DNA dC*dT*dC*dT*dG*dT*dT*dC*dC*dA*dG*dG*dT*dG*dT*dC*dT*dA; antisense) [compound 18648]”, for which the “% INHIB. (Inhibition of CD40 mRNA Levels by Phosphorothioate Oligodeoxynucleotides)” value amounted to 0.00%.

Take “18649 (DNA dC*dT*dG*dG*dT*dG*dG*dC*dA*dG*dT*dG*dT*dG*dT*dC*dT*dC; antisense) [compound 18649]”: the “% INHIB. (Inhibition of CD40 mRNA Levels by Phosphorothioate Oligodeoxynucleotides)” value came out at 0.00%.

For “18650 (DNA dT*dG*dG*dG*dG*dT*dC*dG*dC*dA*dG*dT*dA*dT*dT*dT*dG*dT; antisense) [compound 18650]”, the “% INHIB. (Inhibition of CD40 mRNA Levels by Phosphorothioate Oligodeoxynucleotides)” value is 0.00%.

On to “18651 (DNA dG*dG*dT*dT*dG*dG*dG*dG*dT*dC*dG*dC*dA*dG*dT*dA*dT*dT; antisense) [compound 18651]”, for which the “% INHIB. (Inhibition of CD40 mRNA Levels by Phosphorothioate Oligodeoxynucleotides)” value was 0.00%.

As for “18652 (DNA dC*dT*dA*dG*dG*dT*dT*dG*dG*dG*dG*dT*dC*dG*dC*dA*dG*dT; antisense) [compound 18652]”, the “% INHIB. (Inhibition of CD40 mRNA Levels by Phosphorothioate Oligodeoxynucleotides)” value was found to be 0.00%.

“18653 (DNA dG*dG*dT*dG*dC*dC*dC*dT*dT*dC*dT*dG*dC*dT*dG*dG*dA*dC; antisense) [compound 18653]”: the “% INHIB. (Inhibition of CD40 mRNA Levels by Phosphorothioate Oligodeoxynucleotides)” value turned out to be 19.67%.

In the case of “18654 (DNA dC*dT*dG*dA*dG*dG*dT*dG*dC*dC*dC*dT*dT*dC*dT*dG*dC*dT; antisense) [compound 18654]”, the “% INHIB. (Inhibition of CD40 mRNA Levels by Phosphorothioate Oligodeoxynucleotides)” value came to 15.63%.

Consider “18655 (DNA dG*dT*dG*dT*dC*dT*dG*dT*dT*dT*dC*dT*dG*dA*dG*dG*dT*dG; antisense) [compound 18655]”, for which the “% INHIB. (Inhibition of CD40 mRNA Levels by Phosphorothioate Oligodeoxynucleotides)” value came out at 0.00%.

Consider “18656 (DNA dT*dG*dG*dT*dG*dT*dC*dT*dG*dT*dT*dT*dC*dT*dG*dA*dG*dG; antisense) [compound 18656]”, for which the “% INHIB. (Inhibition of CD40 mRNA Levels by Phosphorothioate Oligodeoxynucleotides)” value worked out at 0.00%.

For “18657 (DNA dA*dC*dA*dG*dG*dT*dG*dC*dA*dG*dA*dT*dG*dG*dT*dG*dT*dC; antisense) [compound 18657]”, the “% INHIB. (Inhibition of CD40 mRNA Levels by Phosphorothioate Oligodeoxynucleotides)” value came out at 0.00%.

For “18658 (DNA dT*dT*dC*dA*dC*dA*dG*dG*dT*dG*dC*dA*dG*dA*dT*dG*dG*dT; antisense) [compound 18658]”, the “% INHIB. (Inhibition of CD40 mRNA Levels by Phosphorothioate Oligodeoxynucleotides)” value is given as 0.00%.
